Experimental data as given in BindingDB's records for patent WO2022093820 (GENENTECH, INC., 2022).

Biological target: Phosphatidylinositol 3-kinase catalytic subunit type 3 (Homo sapiens, UniProt Q8NEB9)
Test: VPS34 ADP-Glo kinase assay
Procedure: Experimental compound in DMSO was dispensed to a 384-well microplate via acoustic dispenser at 50 nl per well. […] Assay buffer conditions were as follows: 50 mM HEPES, pH 7.5, 3 mM MnCl2, 0.01% BSA, 0.01% Brij 35, 1 mM TCEP. The 5 µl reaction was incubated for 90 minutes at room temperature, and then quenched with equal volume of ADP-Glo Reagent (5 µl; Promega). Quenched reaction was incubated for 60 min, followed by addition of an equal volume of Kinase Detection Reagent (10 µl; Promega). Luminescence signal was detected on an Envision (Perkin Elmer).

Sequence of Phosphatidylinositol 3-kinase catalytic subunit type 3 (Q8NEB9 whole entry): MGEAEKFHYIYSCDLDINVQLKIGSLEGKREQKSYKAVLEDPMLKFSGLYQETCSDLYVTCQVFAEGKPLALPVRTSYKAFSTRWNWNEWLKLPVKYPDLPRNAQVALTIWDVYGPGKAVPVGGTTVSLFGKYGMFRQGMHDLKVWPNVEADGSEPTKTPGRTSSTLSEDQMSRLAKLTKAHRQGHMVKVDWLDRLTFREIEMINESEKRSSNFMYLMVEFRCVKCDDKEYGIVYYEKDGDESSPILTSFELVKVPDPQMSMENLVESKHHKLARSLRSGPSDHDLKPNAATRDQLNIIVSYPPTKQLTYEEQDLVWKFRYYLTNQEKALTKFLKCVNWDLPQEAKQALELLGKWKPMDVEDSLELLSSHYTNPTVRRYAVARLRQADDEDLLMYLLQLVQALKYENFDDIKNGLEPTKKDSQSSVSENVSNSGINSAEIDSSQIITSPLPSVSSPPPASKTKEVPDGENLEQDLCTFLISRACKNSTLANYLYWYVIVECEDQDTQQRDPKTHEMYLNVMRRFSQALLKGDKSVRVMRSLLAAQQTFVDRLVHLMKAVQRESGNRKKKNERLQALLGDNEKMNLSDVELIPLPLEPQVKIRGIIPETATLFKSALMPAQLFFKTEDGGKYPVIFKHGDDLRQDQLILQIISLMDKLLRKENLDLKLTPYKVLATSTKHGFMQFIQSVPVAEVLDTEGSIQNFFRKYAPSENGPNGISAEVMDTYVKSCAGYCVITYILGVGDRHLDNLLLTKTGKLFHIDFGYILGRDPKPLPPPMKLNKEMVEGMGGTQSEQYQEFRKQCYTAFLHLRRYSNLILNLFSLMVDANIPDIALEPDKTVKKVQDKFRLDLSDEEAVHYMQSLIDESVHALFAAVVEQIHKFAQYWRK

| IC50 [nM] | Compound |
| --- | --- |
| 32400 | C[C@H](CO)[C@@H]1CNC(=O)c2cc(N3CCOC[C@H]3C)nn21 [WO2022093820, Compound 67] |
| 784 | C[C@@H]1COCCN1c1cc2n(n1)C([C@@H](C)CO)CNC2=O (stereo partly specified) [WO2022093820, Compound 69] |
| 739 | CC(C)C[C@H]1CNC(=O)c2cc(N3CCOC[C@H]3C)nn21 [WO2022093820, Compound 62] |
| 21000 | CC(C)[C@@H]1n2nc(N3CCOC[C@H]3C)cc2C(=O)NC12CC2 [WO2022093820, Compound 34] |
| 119 | C[C@@H]1COCCN1c1cc2n(n1)C([C@@H](C)c1ccccc1)CNC2=O (stereo partly specified) [WO2022093820, Compound 56] |
| 27 | C[C@@H]1COCCN1c1cc2n(n1)[C@](C)(C1CC1)C1(CC1)NC2=O [WO2022093820, Compound 29] |
| 33600 | CC[C@@H](C)C[C@H]1CNC(=O)c2cc(N3CCOC[C@H]3C)nn21 [WO2022093820, Compound 64] |
| 388 | C[C@@H]1COCCN1c1cc2n(n1)[C@H]([C@@H](C)c1ccccc1)CNC2=O [WO2022093820, Compound 58] |
| 847 | CC(C)C1(CO)CNC(=O)c2cc(N3CCOC[C@H]3C)nn21 (stereo partly specified) [WO2022093820, Compound 50] |
| 56 | C[C@@H]1COCCN1c1cc2n(n1)[C@H](C1(C)CC1)CNC2=O [WO2022093820, Compound 11] |
| 1300 | CC[C@]1(C2CC2)CNC(=O)c2cc(N3CCOC[C@H]3C)nn21 [WO2022093820, Compound 28] |
| 24 | CC(C)[C@H]1n2nc(N3CCOC[C@H]3C)cc2C(=O)NC12CC2 [WO2022093820, Compound 33] |
| 12800 | CC(C)C[C@@H]1CNC(=O)c2cc(N3CCOC[C@H]3C)nn21 [WO2022093820, Compound 61] |
| 51 | C[C@@H]1COCCN1c1cc2n(n1)[C@@H]1CCC(C)(C)[C@@H]1NC2=O [WO2022093820, Compound 41] |
| 50000 | C[C@@H]1COCCN1c1cc2n(n1)[C@@H](C(F)(F)C(F)(F)F)CNC2=O [WO2022093820, Compound 16] |
| 1750 | C[C@@H]1COCCN1c1cc2n(n1)[C@@](C)(C1CC1)C1(CC1)NC2=O [WO2022093820, Compound 30] |
| 260 | C[C@@H]1COCCN1c1cc2n(n1)[C@@](C)(C1CCC1)CNC2=O [WO2022093820, Compound 45] |
| 747 | CC[C@H]1CNC(=O)c2cc(N3CCOC[C@H]3C)nn21 [WO2022093820, Compound 47] |
| 2170 | CC(C)[C@@]1(C)CNC(=O)c2cc(N3CCOC[C@H]3C)nn21 [WO2022093820, Compound 26] |
| 27300 | C[C@@H]1COCCN1c1cc2n(n1)[C@H]([C@@H](C)CO)CNC2=O [WO2022093820, Compound 68] |
| 1340 | C[C@@H]1COCCN1c1cc2n(n1)[C@@](C)(C1CC1)CNC2=O [WO2022093820, Compound 24] |

| IC50 [nM] | Compound |
| --- | --- |
| 41 | C[C@@H]1COCCN1c1cc2n(n1)[C@](C)(C1CC1)CNC2=O [WO2022093820, Compound 23] |
| 35000 | C[C@@H]1COCCN1c1cc2n(n1)[C@@H](C1(c3ccccc3)CC1)CNC2=O [WO2022093820, Compound 49] |
| 563 | COC[C@]1(C(C)C)CNC(=O)c2cc(N3CCOC[C@H]3C)nn21 [WO2022093820, Compound 54] |
| 532 | C[C@H](CO)C1CNC(=O)c2cc(N3CCOC[C@H]3C)nn21 (stereo partly specified) [WO2022093820, Compound 70] |
| 682 | C[C@@H]1COCCN1c1cc2n(n1)C[C@H](CC(F)(F)F)NC2=O [WO2022093820, Compound 51] |
| 36200 | COC[C@@]1(C(C)C)CNC(=O)c2cc(N3CCOC[C@H]3C)nn21 [WO2022093820, Compound 53] |
| 50000 | C[C@H](c1ccccc1)C1CNC(=O)c2cc(N3CCOC[C@H]3C)nn21 (stereo partly specified) [WO2022093820, Compound 55] |
| 12800 | CC[C@@H]1CNC(=O)c2cc(N3CCOC[C@H]3C)nn21 [WO2022093820, Compound 46] |
| 919 | C[C@@H]1COCCN1c1cc2n(n1)C(C)(C)CNC2=O [WO2022093820, Compound 71] |
| 4000 | C[C@@H]1COCCN1c1cc2n(n1)[C@](C)(C1CCC1)CNC2=O [WO2022093820, Compound 44] |
| 3350 | C[C@@H]1COCCN1c1cc2n(n1)[C@@H](C1(C)CC1)CNC2=O [WO2022093820, Compound 12] |
| 52 | C[C@@H]1COCCN1c1cc2n(n1)[C@H](C(F)(F)C(F)(F)F)CNC2=O [WO2022093820, Compound 15] |
| 100 | C[C@@H]1COCCN1c1cc2n(n1)[C@H](C1(c3ccccc3)CC1)CNC2=O [WO2022093820, Compound 48] |
| 50000 | C[C@H](c1ccccc1)[C@@H]1CNC(=O)c2cc(N3CCOC[C@H]3C)nn21 [WO2022093820, Compound 57] |
| 109 | CC[C@H](C)C[C@@H]1CNC(=O)c2cc(N3CCOC[C@H]3C)nn21 [WO2022093820, Compound 65] |
| 90 | CC(C)[C@]1(C)CNC(=O)c2cc(N3CCOC[C@H]3C)nn21 [WO2022093820, Compound 25] |
| 429 | C[C@@H]1COCCN1c1cc2n(n1)[C@@H](CC(F)(F)F)CNC2=O [WO2022093820, Compound 60] |
| 24700 | C[C@@H]1COCCN1c1cc2n(n1)C[C@@H](CC(F)(F)F)NC2=O [WO2022093820, Compound 52] |
| 32 | CC[C@@]1(C2CC2)CNC(=O)c2cc(N3CCOC[C@H]3C)nn21 [WO2022093820, Compound 27] |
| 36000 | C[C@@H]1COCCN1c1cc2n(n1)[C@H](CC(F)(F)F)CNC2=O [WO2022093820, Compound 59] |
